Assay results: PubChem BioAssay (NCI)
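Exposure lasted 48 hours, with cells grown in 96-well plates and compounds tested at five concentrations. The concentration for 50% growth inhibition is given as GI50. TGI is the concentration that stops growth completely.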

Legend:
Test in all cases: NCI-60 cell line screen, 48 h
OVCAR-4 ovarian = test system: OVCAR-4 ovarian
M14 melanoma = test system: M14 melanoma
MDA-MB-231 breast = test system: MDA-MB-231 breast
MALME-3M melanoma = test system: MALME-3M melanoma
SNB-78 CNS = test system: SNB-78 CNS
DLD-1 colon = test system: DLD-1 colon
DMS 114 small cell lung = test system: DMS 114 small cell lung
KM20L2 colon = test system: KM20L2 colon
M19-MEL melanoma = test system: M19-MEL melanoma
DMS 273 small cell lung = test system: DMS 273 small cell lung
XF 498 CNS = test system: XF 498 CNS
HOP-18 NSCLC = test system: HOP-18 NSCLC

| Compound | TGI (OVCAR-4 ovarian) [µM] | TGI (M14 melanoma) [µM] | TGI (MDA-MB-231 breast) [µM] | TGI (MALME-3M melanoma) [µM] | TGI (SNB-78 CNS) [µM] | TGI (DLD-1 colon) [µM] | TGI (KM20L2 colon) [µM] | TGI (M19-MEL melanoma) [µM] | TGI (DMS 273 small cell lung) [µM] | TGI (XF 498 CNS) [µM] | also measured |
| --- | --- | --- | --- | --- | --- | --- | --- | --- | --- | --- | --- |
| O=C(CSCC(=O)N/N=C/c1cccc(O)c1)N/N=C/c1cccc(O)c1 | > 100 | > 100 | > 100 | > 100 |  |  |  |  |  |  |  |
| CCOC(=O)c1c2c(n(-c3ccc(C)cc3)c1C)-c1ccccc1C(=O)C2(C(=O)OCC)C(=O)OCC | > 100 | > 100 | > 100 | > 75.5 |  |  |  |  |  |  |  |
| O=c1[nH]c2[nH]c(=S)[nH]c(=S)c2[nH]1 | > 100 | > 100 | > 100 | > 100 |  |  |  |  |  |  |  |
| CN1C(=O)CC(=O)N1/C(=C/c1ccccc1)c1ccccc1 | > 100 | > 100 | 79.4 |  |  |  |  |  |  |  |  |
| COc1ccc2nc3cc(Cl)ccc3c(NC(C)CCCN(CCCl)CCCl)c2c1 (configuration not stated) | 4.33 | 2.78 |  | 9.63 | 7.38 | 4.1 | 5.73 | 8.78 | 2.27 | 4.43 | TGI (DMS 114 small cell lung): 11.4 µM |
| CSCCC(C(=O)O)N(C)C (configuration not stated) | > 100 | > 100 | > 100 | > 100 |  |  |  |  |  |  |  |
| C=CCNC(=O)C(C)C1CCC2(C)C=CC(=O)C(C)=C2C1O (configuration not stated) | > 100 |  |  |  | > 89.1 | > 100 | > 100 | > 100 | > 100 | > 100 | TGI (HOP-18 NSCLC): > 100 µM; TGI (DMS 114 small cell lung): > 100 µM |
| Oc1ccc(C(=C(Br)c2ccccc2)c2ccc(O)cc2)cc1 |  | 15.3 | 24 | 18 |  |  |  |  |  |  |  |
| C=C(C#N)C(=O)OCC(CC)CC.C=C(C#N)C(=O)OCC(CC)CC.CS(C)=O.CS(C)=O.Nc1c(N=Nc2ccc(-c3ccc(N=Nc4cc(S(=O)(=O)[O-])c5ccccc5c4N)cc3)cc2)cc(S(=O)(=O)[O-])c2ccccc12.[Pt+2] | 99.2 |  |  | 50 | > 95.6 | > 77.8 | > 100 |  | > 100 | 40.9 | GI50 (OVCAR-4 ovarian): 33.7 µM; GI50 (HOP-18 NSCLC): 22 µM; TGI (HOP-18 NSCLC): 53.9 µM; GI50 (SNB-78 CNS): 38.8 µM; GI50 (MALME-3M melanoma): 21.8 µM; GI50 (DLD-1 colon): 28.2 µM; GI50 (KM20L2 colon): > 100 µM; GI50 (DMS 273 small cell lung): 40.4 µM; GI50 (XF 498 CNS): 21.1 µM |
| Cc1ccc(S(=O)(=O)OC2CC(C(C)(C)C)CCC2c2ccccc2)cc1 (configuration not stated) | > 100 | > 100 | > 100 |  |  |  |  |  |  |  |  |
| O=C1c2cc(O)c(O)cc2O[C@H](c2ccc(O)c(O)c2)[C@H]1O |  | > 100 | > 100 |  |  |  |  |  |  |  |  |
| O=C1c2ccccc2C(=O)c2[nH]cnc21 | > 100 | > 100 |  | 57.3 | > 100 | > 100 |  | 40.6 | > 100 | 99.4 | TGI (DMS 114 small cell lung): 86.9 µM |
| CCN(CC)CCNc1ccc2ncn3c4ccc(O)cc4c(=O)c1c23 | 9.81 | 9.05 | 14.1 | 15.8 | 17.6 | 15.1 | 14.9 | 17.1 | 12.5 | 7.42 | TGI (HOP-18 NSCLC): 33.3 µM |
